Reference: patent US10285982B2, “3-(1H-pyrrolo[2,3-B]pyridin-2-yl)-1H-pyrazolo[3,4-C]pyridines and therapeutic uses thereof” (Samumed, LLC, priority 2015, dated 2019)

What was measured:
Type in all cases: cell-based
[1] = system: Wnt activity (Sp5-Luc reporter, SW480 colon carcinoma cells); assay: Wnt activity screening assay, Sp5-Luc reporter gene in SW480 cells; conditions: Homo sapiens; for EC50: overnight incubation
Description: The screening assay for Wnt activity is described as follows. Reporter cell lines can be generated by stably transducing cancer cell lines (e.g., colon cancer) or primary cells (e.g., IEC-6 intestinal cells) with a lentiviral construct that includes a Wnt-responsive promoter driving expression of the firefly luciferase gene.
SW480 colon carcinoma cells were transduced with a lentiviral vector expressing luciferase with a human Sp5 promoter consisting of a sequence of eight TCF/LEF binding sites. SW480 cells stably expressing the Sp5-Luc reporter gene and a hygromycin resistance gene were selected by treatment with 150 μg/mL of hygromycin for 7 days. These stably transduced SW480 cells were expanded in cell culture and used for all further screening activities. Each compound was dissolved in DMSO as a 10 mM stock and used to prepare compound source plates. Serial dilution (1:3, 10-point dose-response curves starting from 10 μM) and compound transfer was performed using the ECHO 550 (Labcyte, Sunnyvale, Calif.) into 384-well white solid bottom assay plates (Greiner Bio-One) with appropriate DMSO backfill for a final DMSO concentration of 0.1%. For Sp5-Luc reporter gene assays, the cells were plated at 4,000 cells/well in 384-well plates with medium containing 1% fetal bovine serum and incubated overnight at 37° C. and 5% CO2. Following incubation, 20 μl of BrightGlo luminescence reagent (Promega) was added to each well of the 384-well assay plates. The plates were placed on an orbital shaker for 2 min and then luminescence was quantified using the Envision (Perkin Elmer) plate reader. Readings were normalized to DMSO only treated cells, and normalized activities were utilized for EC50 calculations using the dose-response log (inhibitor) vs. response-variable slope (four parameters) nonlinear regression feature available in GraphPad Prism 5.0 (or Dotmatics). For EC50 of >10 μM, the percent inhibition at 10 μM is provided.

[2] = system: SW480 colon cancer cells; assay: Cell viability assay (CellTiter-Blue); conditions: Homo sapiens, 96 h, four days
Procedure: Representative compounds were screened using the following assay procedure to assess the effect on cell viability as described below.
Each compound was dissolved in DMSO as a 10 mM stock and used to prepare compound source plates. Serial dilution (1:3, 8-point dose-response curves from 10 μM to 0.0045 μM) and compound transfer was performed using the ECHO 550 (Labcyte, Sunnyvale, Calif.) into 96-well clear bottom, black-walled plates (Corning-Costar).
Approximately 2×10^3 SW480 colon cancer cells were seeded into each well and allowed to incubate in the presence or absence of compound for four days at 37° C./5% CO2. Eight replicates of DMSO-treated cells served as controls and cells treated with compound were performed in duplicate.
After incubation, 20 μL of CellTiter-Blue (Promega) was added to each well allowed to incubate for approximately 3 hours. This reagent was a buffered solution which contains resazurin, metabolically active cells were able to reduce rezarurin (blue) into resorufin (pink) which was highly fluorescent. This measured fluorescence was used as a readout for cell viability.
After incubation, the plates were read at Ex 560 nm Em 590 nm (Cytation 3, BioTek). Dose-response curves were generated and EC50 concentration values were calculated using non-linear regression curve fit in the GraphPad Prism (San Diego, Calif.) or Dotmatics' Studies Software (Bishops Stortford, UK). For EC50 of >10 μM, the percent inhibition at 10 μM is provided.

[3] = system: primary human fibroblasts derived from IPF patients (LL29 cells) treated with TGF-β1; assay: Inhibition of fibrotic process, αSMA staining in TGF-β1 treated LL29 fibroblasts; conditions: Fibroblast, 96 h, % αSMA positive LL29 cells, TGF-β1 20 ng/mL, 4 days
Description: Representative compounds were screened using primary human fibroblasts (derived from IPF patients) treated with TGF-β1 to determine their ability to inhibit the fibrotic process.
Primary human fibroblasts derived from IPF patients (LL29 cells) [^1Xiaoqiu Liu, et. al., “Fibrotic Lung Fibroblasts Show Blunted Inhibition by cAMP Due to Deficient cAMP Response Element-Binding Protein Phosphorylation”, Journal of Pharmacology and Experimental Therapeutics (2005), 315(2), 678-687; ^2Watts, K. L., et. al., “RhoA signaling modulates cyclin D1 expression in human lung fibroblasts; implications for idiopathic pulmonary fibrosis”, Respiratory Research (2006), 7(1), 88] were obtained from American Type Culture Collection (ATCC) and expanded in F12 medium supplemented with 15% Fetal Bovine Serum and Penicillin/Streptomycin.
Each compound was dissolved in DMSO as a 10 mM stock and used to prepare compound source plates. Serial dilution (1:2, 11-point dose-response curves from 10 μM to 1.87 nM) and compound transfer was performed using the ECHO 550 (Labcyte, Sunnyvale, Calif.) into 384-well clear bottom assay plates (Greiner Bio-One) with appropriate DMSO backfill for a final DMSO concentration of 0.1%. LL29 cells are plated at 1,500 cells/well in 80 μL/well F12 medium supplemented with 1% Fetal Bovine Serum. One hour after addition of the cells, TGF-β1 (Peprotech; 20 ng/mL) was added to the plates to induce fibrosis (ref. 1 and 2 above). Wells treated with TGF-β1 and containing DMSO were used as controls. Cells were incubated at 37° C. and 5% CO2 for 4 days. Following incubation for 4 days, SYTOX green nucleic acid stain (Life Technologies [Thermo Fisher Scientific]) was added to the wells at a final concentration of 1 μM and incubated at room temperature for 30 min. Cells were then fixed using 4% formaldehyde (Electron Microscopy Sciences), washed 3 times with PBS followed by blocking and permeabilization using 3% Bovine Serum Albumin (BSA; Sigma) and 0.3% Triton X-100 (Sigma) in PBS. Cells were then stained with antibody specific to α-smooth muscle actin (αSMA; Abcam) (ref. 1 and 2 above) in 3% Bovine Serum Albumin (BSA; Sigma) and 0.3% Triton X-100 (Sigma) in PBS, and incubated overnight at 4° C. Cells were then washed 3 times with PBS, followed by incubation with Alexa Flor-647 conjugated secondary antibody (Life Technologies [Thermo Fisher Scientific]) and DAPI at room temperature for 1 hour. Cells were then washed 3 times with PBS and plates were sealed for imaging. αSMA staining was imaged by excitation at 630 nm and emission at 665 nm and quantified using the Compartmental Analysis program on the CellInsight CX5 (Thermo Scientific). Dead or apoptotic cells were excluded from analysis based on positive SYTOX green staining. % of total cells positive for αSMA were counted in each well and normalized to the average of 11 wells treated with TGF-β1 on the same plate using Dotmatics' Studies Software. The normalized averages (fold change over untreated) of 3 replicate wells for each compound concentration were used to create dose-responses curves and EC50 values were calculated using non-linear regression curve fit in the Dotmatics' Studies Software. For EC50 of >10 μM, the percent inhibition at 10 μM is provided.

[4] = system: IL-6 (THP-1 cells); assay: IL-6 inhibition in LPS-stimulated THP-1 cells (HTRF); conditions: Homo sapiens; IL-6 in THP-1 cells, LPS 500 ng/mL, 22 hours
Procedure: Human monocyte cell line (THP-1 cells; Catalog # TIB-202, ATCC, Manassas, Va.) were cultured in Roswell Park Memorial Institute (RPMI) 1640 Medium (Catalog #21870-100, Buffalo, N.Y.) with 1% L-glutamine, 1% HEPES, 1% Sodium Pyruvate, 2% Sodium Bicarbonate supplemented with 100 units/mL penicillin, 50 μg/mL streptomycin, 2-mercaptoethanol (0.05 mM) [basal medium] and 10% fetal bovine serum (Catalog #16140089, Life Technologies, Carlsbad, Calif.) at 37° C. and 5% CO2.
THP-1 cells were cultured in basal media with 1% FBS for 24 hours before the start of the assay. Each compound was dissolved in DMSO as a 10 mM stock and used to prepare compound source plates. Serial dilution (1:3, 10-point dose-response curves starting from 10 μM) and compound transfer was performed using the ECHO 550 (Labcyte, Sunnyvale, Calif.) into 384-well white low volume assay plates (Greiner Bio-One) with appropriate DMSO backfill for a final DMSO concentration of 0.1%. THP-1 cells were plated at 5000 cells/well in the 384-well plates and incubated at 37° C. for 2 h. 500 ng/mL of LPS was added after 2 hours and cells were incubated for another 22 hours at 37° C. Plates were spun in a centrifuge for 1 minute at […] and a mixture of anti-IL6 XL665, and anti-IL6 Cryptate diluted in reconstitution buffer (Cisbio Inc.) was added to each well. Following incubation for 3 hrs at room temperature, Homogeneous Time-Resolved Fluorescence (HTRF) was measured using the Envision (Perkin Elmer) at 665 nm and […]. The ratio of fluorescence at 665 nm to 620 nm was used as a readout for IL6 quantification. All samples were processed in duplicate. Readings were normalized to DMSO treated cells and normalized activities were utilized for EC50 calculations using the dose-response log (inhibitor) vs. response-variable slope (four parameters) nonlinear regression feature available in GraphPad Prism 5.0 (or Dotmatics). For EC50 of >10 μM, the percent inhibition at 10 μM is provided.

Row | SMILES | EC50 [1] [µM] | EC50 [2] [µM] | EC50 [3] [µM] | EC50 [4] [µM] | inhibition at 10 µM ([1]; at 10 μM, given where EC50 >10 μM, read-out: percent inhibition at 10 μM) [%]
1 | CC(C)C(=O)Nc1cncc(-c2cc3c(-c4cc5c(N6CCCCC6)ccnc5[nH]4)n[nH]c3cn2)c1 [Compound 177, N-(5-(3-(4-(Piperidin-1-yl)-1H-pyrrolo[2,3-b]pyridin-2-yl)-1H-pyrazolo[3,4-c]pyridin-5-yl)pyridin-3-yl)isobutyramide] | 0.867 | 1.08 | 1.49 | 9.85 | 
2 | CC(C)Nc1cncc(-c2cc3c(-c4cc5c(N6CCCCC6)ccnc5[nH]4)n[nH]c3cn2)c1 [Compound 180, N-Isopropyl-5-(3-(4-(piperidin-1-yl)-1H-pyrrolo[2,3-b]pyridin-2-yl)-1H-pyrazolo[3,4-c]pyridin-5-yl)pyridin-3-amine] | 1.63 | 1.54 | 2.43 | 9.55 | 
3 | c1csc(-c2ccnc3[nH]c(-c4n[nH]c5cnc(-c6cncc(CN7CCCCC7)c6)cc45)cc23)c1 [Compound 351, 5-(5-(Piperidin-1-ylmethyl)pyridin-3-yl)-3-(4-(thiophen-2-yl)-1H-pyrrolo [2,3-b]pyridin-2-yl)-1H-pyrazolo[3,4-c]pyridine] | 6.9 | 4.1 | 2.56 | 0.182 | 
4 | Cc1ncc(-c2cc3c(-c4cc5c(-c6cccs6)ccnc5[nH]4)n[nH]c3cn2)n1C [Compound 701, 5-(1,2-Dimethyl-1H-imidazol-5-yl)-3-(4-(thiophen-2-yl)-1H-pyrrolo[2,3-b]pyridin-2-yl)-1H-pyrazolo[3,4-c]pyridine] | 1.06 | 1.22 | 0.928 | 0.988 | 
5 | CC(C)Nc1cncc(-c2cc3c(-c4cc5c(-c6ccc(F)cc6)ccnc5[nH]4)n[nH]c3cn2)c1 [Compound 40, 5-(3-(4-(4-Fluorophenyl)-1H-pyrrolo[2,3-b]pyridin-2-yl)-1H-pyrazolo[3,4-c]pyridin-5-yl)-N-isopropylpyridin-3-amine] | 0.223 | 0.179 | 0.043 | 9.38 | 
6 | Fc1ccc(-c2ccnc3[nH]c(-c4n[nH]c5cnc(-c6cncc(CN7CCC(F)(F)C7)c6)cc45)cc23)cc1 [Compound 54, 5-(5-((3,3-Difluoropyrrolidin-1-yl)methyl)pyridin-3-yl)-3-(4-(4-fluorophenyl)-1H-pyrrolo[2,3-b]pyridin-2-yl)-1H-pyrazolo[3,4-c]pyridine] | > 10 | 1.4 | 1.11 | 2.05 | 28.1
7 | c1cncc(-c2cc3c(-c4cc5c(N6CCCCC6)ccnc5[nH]4)n[nH]c3cn2)c1 [Compound 172, 3-(4-(Piperidin-1-yl)-1H-pyrrolo[2,3-b]pyridin-2-yl)-5-(pyridin-3-yl)-1H-pyrazolo[3,4-c]pyridine] | 2.24 | 3.54 | 1.73 | 3.4 | 
8 | CC(C)(C)CC(=O)Nc1cncc(-c2cc3c(-c4cc5c(-c6ccc(F)cc6)ccnc5[nH]4)n[nH]c3cn2)c1 [Compound 44, N-(5-(3-(4-(4-Fluorophenyl)-1H-pyrrolo[2,3-b]pyridin-2-yl)-1H-pyrazolo [3,4-c]pyridin-5-yl)pyridin-3-yl)-3,3-dimethylbutanamide] | 0.144 | 1.16 | 0.311 | 4.4 | 
9 | Fc1ccccc1-c1ccnc2[nH]c(-c3n[nH]c4cnc(-c5ccccn5)cc34)cc12 [Compound 84, 3-(4-(2-Fluorophenyl)-1H-pyrrolo[2,3-b]pyridin-2-yl)-5-(pyridin-2-yl)-1H-pyrazolo[3,4-c]pyridine] | 0.279 | 0.411 | 0.561 | 6.42 | 
10 | CC(C)(C)CC(=O)Nc1cncc(-c2cc3c(-c4cc5c(N6CCCCC6)ccnc5[nH]4)n[nH]c3cn2)c1 [Compound 184, 3,3-Dimethyl-N-(5-(3-(4-(piperidin-1-yl)-1H-pyrrolo[2,3-b]pyridin-2-yl)-1H-pyrazolo[3,4-c]pyridin-5-yl)pyridin-3-yl)butanamide] | 3.23 | 4.3 | 1.97 | 3.31 | 
